Several values for one entry are separate records, joined by “and”; a condition that tells them apart may be missing. Identical values can stand only once.
What was measured:
activated Akt = experiment: Western immunoblot for activated (phospho-Ser473) Akt in muscle cells; assay type: cell-based, mouse; settings: for FOLD AKT ACTIVATION (OVER CONTROL): cells treated 30 minutes at 37° C; for effect on Akt activity (in words): no concentration stated
Protocol: (§1) The levels of Glut-4, activated AMPK and activated Akt were measured in mouse muscle cells C2C12 (from ATTC) and in primary culture of human skeletal muscle cells (Clonetics, Inc.) using Western immunoblotting. C2C12 cells were plated at 1.5×1-exp5 cells per mL/well (12-well plate) in standard cell culture medium (DMEM supplemented with 10% fetal bovine serum (FBS), 25 mM glucose, 20 mM Hepes, 4 mM glutamine and 2 mM sodium pyruvate. 48 hrs after the plating, medium was changed to differentiation medium (DMEM supplemented with 5 mM of glucose and 0.5% of FBS) for next 3-4 days to stimulate the formation of myotubes. Three hours before the treatment with selected agents, cells were washed with PBS and transferred to PBS supplemented with 5 mM of glucose.
(§2) Human skeletal muscle cells (HSKM) were cultured in SKBM-2 mediums provided by Clonetics. 48 hrs after cell plating, medium was changed to SKBM medium to stimulate differentiation of the cells to myotubes. When differentiated, the myotubes were transferred to PBS supplemented with 5 mM glucose for three hrs before the treatment.
(§3) Analysis of C2C12 cells for the level of activated AMPK, Akt and the level of GLUT-4 was performed in the same experimental system. The cells were treated for 30 minutes at 37° C. […] Subsequently, 20 μg per sample of sample protein was used for Western analysis using NuPage 10% Bis/Tris gels (Invitrogen). After exposure of membranes to primary and secondary antibodies AMPK, AKT or Glut-4 was detected using ECL-Plus (Amersham) following producer's instruction. Chemilumiscent signals were detected by using ChemiDoc system from Biorad. Intensity of detected signals were analyzed and measured using Quantity One software (Biorad). Alternatively, the level of phosphorylated AMPK was detected using ECL kit from Amersham and short exposure to Kodak films.
(§4) Experimental setup: Cell Culture was followed by treatment with selected contemplated compounds, which was followed by cell lysis and western blot analysis for AMPK, Akt, GLUT4, total AMPK, and total Akt. Signals were acquired accordingly.

activated AMPK = experiment: Western immunoblot for activated (phospho-Thr172) AMPK in muscle cells; assay type: cell-based, mouse; settings: for FOLD AMPK ACTIVATION (OVER CONTROL): cells treated 30 minutes at 37° C; for effect on AMPK activity (in words): no concentration stated
Protocol: as §1, §2, §3, §4

Compound: NC(=O)c1ncn([C@@H]2O[C@H](CO)[C@@H](O)[C@H]2O)c1N [AICAR, reference compound]
- FOLD AKT ACTIVATION (OVER CONTROL) (activated Akt; 50.0 microM): 2.20 fold
- FOLD AKT ACTIVATION (OVER CONTROL) (activated Akt; 500.0 microM): 5.45 fold

Compound: c1ccc(CNc2ncnc3nc[nH]c23)cc1 [Benzyl-Adenine]
- FOLD AMPK ACTIVATION (OVER CONTROL) (activated AMPK; 0.5 microM): 2.18 fold
- FOLD AMPK ACTIVATION (OVER CONTROL) (activated AMPK; 5.0 microM): 2.70 fold
- FOLD AMPK ACTIVATION (OVER CONTROL) (activated AMPK; 50.0 microM): 2.92 fold

Compound: CC(=O)Nc1ccn([C@@H]2O[C@H](CO)[C@@H](O)[C@H]2O)c(=O)n1 [N^4-Acetyl-Cytidine]
- FOLD AKT ACTIVATION (OVER CONTROL) (activated Akt; 0.8 microM): 2.45 fold
- FOLD AKT ACTIVATION (OVER CONTROL) (activated Akt; 2.0 microM): 1.46 fold and 1.50 fold
- FOLD AKT ACTIVATION (OVER CONTROL) (activated Akt; 5.0 microM): 1.64 fold and 1.36 fold

Compound: Nc1ncnc2c1ncn2[C@@H]1O[C@H](CO)[C@@H](O)[C@H]1O [Adenosine]
- FOLD AMPK ACTIVATION (OVER CONTROL) (activated AMPK; 2.5 microM): 1.87 fold
- FOLD AMPK ACTIVATION (OVER CONTROL) (activated AMPK; 5.0 microM): 1.64 fold
- FOLD AMPK ACTIVATION (OVER CONTROL) (activated AMPK; 12.5 microM): 1.83 fold

Compound: Insulin
- FOLD AKT ACTIVATION (OVER CONTROL) (activated Akt; 0.10 nanoM): 1.75 fold
- FOLD AKT ACTIVATION (OVER CONTROL) (activated Akt; 25.0 nanoM): 3.40 fold
- FOLD AKT ACTIVATION (OVER CONTROL) (activated Akt; 50.0 nanoM): 3.28 fold

Compound: CC(C)=CCNc1ncnc2nc[nH]c12 [Gamma, Gamma-Dimethylally-6-Aminopurine]
- FOLD AKT ACTIVATION (OVER CONTROL) (activated Akt; 0.8 microM): 1.90 fold and 3.56 fold
- FOLD AKT ACTIVATION (OVER CONTROL) (activated Akt; 2.0 microM): 1.32 fold
- FOLD AMPK ACTIVATION (OVER CONTROL) (activated AMPK; 0.5 microM): 2.82 fold
- FOLD AMPK ACTIVATION (OVER CONTROL) (activated AMPK; 5.0 microM): 2.45 fold
- FOLD AMPK ACTIVATION (OVER CONTROL) (activated AMPK; 50.0 microM): 2.11 fold

Compound: Nc1nc2c(ncn2[C@@H]2O[C@H](CO)[C@@H](O)[C@H]2O)c(=O)[nH]1 [Guanosine]
- effect on Akt activity (in words) (activated Akt): potent activators of AMPK as well as Akt
- FOLD AMPK ACTIVATION (OVER CONTROL) (activated AMPK; 5.0 microM): 3.70 fold
- effect on AMPK activity (in words) (activated AMPK): potent activators of AMPK

Compound: C/C(=C\CNc1ncnc2[nH]cnc12)CO [Zeatin]
- FOLD AKT ACTIVATION (OVER CONTROL) (activated Akt; 1.0 microM): 0.95 fold
- FOLD AKT ACTIVATION (OVER CONTROL) (activated Akt; 10.0 microM): 1.36 fold
- effect on Akt activity (in words) (activated Akt): not Akt
- FOLD AMPK ACTIVATION (OVER CONTROL) (activated AMPK; 1.0 microM): 2.33 fold and 2.15 fold
- FOLD AMPK ACTIVATION (OVER CONTROL) (activated AMPK; 10.0 microM): 2.04 fold
- effect on AMPK activity (in words) (activated AMPK): potent stimulator of AMPK

Compound: OC[C@H]1O[C@@H](n2cnc3c(NCc4ccco4)ncnc32)[C@H](O)[C@@H]1O [Kinetin Riboside]
- FOLD AKT ACTIVATION (OVER CONTROL) (activated Akt; 0.8 microM): 3.71 fold
- FOLD AKT ACTIVATION (OVER CONTROL) (activated Akt; 2.0 microM): 5.14 fold
- FOLD AKT ACTIVATION (OVER CONTROL) (activated Akt; 5.0 microM): 3.32 fold
- FOLD AMPK ACTIVATION (OVER CONTROL) (activated AMPK; 3.0 microM): 12.00 fold

Compound: CC(=O)Nc1ncnc2c1ncn2[C@@H]1O[C@H](CO)[C@@H](O)[C@H]1O [N^6-Acetyl-Adenosine]
- FOLD AMPK ACTIVATION (OVER CONTROL) (activated AMPK; 2.5 microM): 1.08 fold
- FOLD AMPK ACTIVATION (OVER CONTROL) (activated AMPK; 5.0 microM): 2.41 fold
- FOLD AMPK ACTIVATION (OVER CONTROL) (activated AMPK; 12.5 microM): 2.18 fold

Compound: C/C(=C\CNc1ncnc2nc[nH]c12)CO [Trans-Zeatin]
- FOLD AKT ACTIVATION (OVER CONTROL) (activated Akt; 1.0 microM): 0.90 fold
- FOLD AKT ACTIVATION (OVER CONTROL) (activated Akt; 10.0 microM): 0.86 fold
- FOLD AMPK ACTIVATION (OVER CONTROL) (activated AMPK; 1.0 microM): 2.33 fold
- FOLD AMPK ACTIVATION (OVER CONTROL) (activated AMPK; 10.0 microM): 4.27 fold

Reference: patent publication US20090208620A1, “Alimentary Compositions and Methods For Metabolic Modulation” (VDF FUTURECEUTICALS, INC., priority 2003, published 2009)
